Measurements reported in patent US5679680A, “α-substituted hydrazides having calpain inhibitory activity” (Warner-Lambert Company, priority 1995, dated 1997).

How the values were obtained:
Human Calpain I = molecular target: T1, Human Calpain I (Homo sapiens, UniProt P07384); assay: Calpain I activity, casein substrate, Coomassie microplate assay; type: biochemical
T1 construct: Calpain I was purified from human erythrocytes; from tissue; host or cells: human erythrocytes
T1 sequence (P07384 1-714): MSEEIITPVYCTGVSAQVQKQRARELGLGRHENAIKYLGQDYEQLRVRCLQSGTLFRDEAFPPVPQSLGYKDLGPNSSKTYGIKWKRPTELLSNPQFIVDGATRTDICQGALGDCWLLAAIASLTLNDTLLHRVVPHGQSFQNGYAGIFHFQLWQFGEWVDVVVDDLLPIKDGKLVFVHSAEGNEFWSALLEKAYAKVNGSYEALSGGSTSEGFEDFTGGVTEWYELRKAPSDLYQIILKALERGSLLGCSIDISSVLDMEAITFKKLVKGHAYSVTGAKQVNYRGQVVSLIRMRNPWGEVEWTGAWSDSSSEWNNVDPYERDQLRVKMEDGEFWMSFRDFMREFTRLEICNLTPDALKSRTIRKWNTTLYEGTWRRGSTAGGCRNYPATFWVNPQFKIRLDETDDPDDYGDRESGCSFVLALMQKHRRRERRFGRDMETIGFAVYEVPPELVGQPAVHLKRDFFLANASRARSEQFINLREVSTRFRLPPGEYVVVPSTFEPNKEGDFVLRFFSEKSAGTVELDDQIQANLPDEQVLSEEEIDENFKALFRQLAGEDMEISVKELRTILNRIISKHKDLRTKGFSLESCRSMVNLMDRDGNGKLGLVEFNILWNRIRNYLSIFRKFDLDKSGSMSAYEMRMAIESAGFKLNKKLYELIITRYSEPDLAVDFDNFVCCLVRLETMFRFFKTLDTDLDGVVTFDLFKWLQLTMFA
T1 sequence (P04632 1-268 partner): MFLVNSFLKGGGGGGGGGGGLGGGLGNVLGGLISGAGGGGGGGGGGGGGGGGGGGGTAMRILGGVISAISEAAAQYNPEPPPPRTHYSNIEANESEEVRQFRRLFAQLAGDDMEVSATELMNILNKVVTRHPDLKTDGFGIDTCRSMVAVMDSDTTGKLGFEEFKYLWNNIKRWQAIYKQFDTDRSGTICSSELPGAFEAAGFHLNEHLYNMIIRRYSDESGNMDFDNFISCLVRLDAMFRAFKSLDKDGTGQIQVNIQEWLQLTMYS
Experimental: Assay of calpain activity: Calpain I was purified from human erythrocytes as described by Wang K K W, Roufogalis B D, and Villalobo A, Arch Biochem Biophys 1988;267: 317-327. Calpain activity was assayed in a 96-well microplate format (Buroker-Kilgore M and Wang K K W, Anal Bio Chem 1993;208: 387-392). In 250 μL of reaction mixture, substrate casein (0.5 mg/mL) was incubated with 0.01 unit (80-120 ng) calpain I, 20 mM dithiothreitol (DTT), 50 mM Tris-HCl (pH 7.4 at 25° C.) and 4 mM CaCl2 at 25° C. for 60 minutes. Two 100-μL aliquots were taken for Coomassie blue G250 binding analysis to quantify the remaining casein.
Compound concentrations that cause 50% inhibition (IC50) are as shown (Table I). The second rate of inactivation of calpain I for 2 compounds are also shown.
(§1) Selectivity of α-substituted Hydrazides: Calpain I and II were assayed as described in Example 1. One to 2 ng papain (papaya latex, Sigma, P3125), 1.25 μg trypsin (bovine pancreas, Sigma, T8003), 5 μg thermolysin (Bacillus thermoproteolyticus, Sigma, P1512) were assayed using 0.5 mg/mL casein as substrate in the microplate format (250 μL reaction volume), essentially a described by Buroker-Kilgore, M. and Wang K K W, Anal Biochem 1993;208: 387-392. Cathepsin B (0.002 unit, bovine spleen) was assayed with 50 mM MES (pH 5.5), 100 μM carbobenzoxy-Arg-Arg-4-methoxy-beta-naphthlamide (Cbz-Arg-Arg-MNA), inhibitor, and 2 mM DTT in 200 μL for 60 minutes at room temperature. Fifty-microliter aliquots were transferred to a fluorescence-compatible plate and then read with a Perkin-Elmer fluorometer LS-50B (excitation 340 nm and emission 425 nm). Calcineurin (bovine brain, Sigma) (5 μg, 0.8 unit) was assayed with 10 mM p-nitrophenyl phosphate in 1 mM DTT, 1 mM CaCl2, 1 mM MnCl2, […] calmodulin (CaM, if added), and 50 mM Tris-HCl (pH 7.4) at 25° C. for 60 minutes or more. Production of p-nitrophenol was monitored at 405 nm. Inhibition of these proteases are presented as IC50.

[1] = system: Fetal Rat Cerebrocortical Cultures; assay: Oxygen/glucose deprivation induced LDH release from fetal rat cerebrocortical cultures; type: cell-based
Calmodulin-calcineurin = molecular target: T2, Calmodulin-calcineurin (Bos taurus, UniProt P48452); assay: Calmodulin-calcineurin assay (p-nitrophenyl phosphate); type: biochemical, bovine; conditions: pH 7.4, 25° C., 60 minutes or more
T2 construct: purchased Sigma; host or cells: bovine brain
Experimental: as §1

Thermolysin = molecular target: T3, Thermolysin (Bacillus thermoproteolyticus, UniProt P00800); assay: Thermolysin assay, casein substrate; type: biochemical
T3 construct: purchased Sigma P1512; host or cells: Bacillus thermoproteolyticus
T3 sequence (P00800 233-548): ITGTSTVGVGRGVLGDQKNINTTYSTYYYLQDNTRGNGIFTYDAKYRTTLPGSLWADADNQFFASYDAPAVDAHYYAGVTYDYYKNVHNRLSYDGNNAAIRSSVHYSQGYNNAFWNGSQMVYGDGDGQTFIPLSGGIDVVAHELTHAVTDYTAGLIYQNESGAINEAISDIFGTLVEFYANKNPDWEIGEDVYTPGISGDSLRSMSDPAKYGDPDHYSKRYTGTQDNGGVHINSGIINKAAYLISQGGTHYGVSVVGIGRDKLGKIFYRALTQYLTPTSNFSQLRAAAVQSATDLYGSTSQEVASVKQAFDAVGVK
Experimental: as §1

Papain = molecular target: T4, Papain (Carica papaya, UniProt P00784); assay: Papain assay, casein substrate; type: biochemical; conditions: 0.5 mg/mL casein
T4 construct: purchased Sigma P3125; host or cells: papaya latex
T4 sequence (P00784 134-345): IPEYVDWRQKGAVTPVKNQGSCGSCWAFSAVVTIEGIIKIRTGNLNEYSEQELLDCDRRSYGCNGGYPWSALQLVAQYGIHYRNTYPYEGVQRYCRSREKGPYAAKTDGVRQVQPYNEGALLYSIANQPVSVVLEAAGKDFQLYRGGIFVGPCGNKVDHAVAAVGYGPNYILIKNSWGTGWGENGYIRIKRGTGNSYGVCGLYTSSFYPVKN
Experimental: as §1

O=C(CCl)NN=c1[nH]c2ccccc2n(-c2ccccc2)c1=O [Example 5, 2-Chloro-acetic acid (3-oxo-4-phenyl-3,4-dihydro-1H-quinoxalin-2-ylidene)-hydrazide]
Ki/[I] Calpain I (second rate of inactivation) (Human Calpain I): 109 M⁻¹ s⁻¹
IC50 (Human Calpain I; casein 0.5 mg/mL, pH 7.4, 25° C., 60 minutes (Table I)): 0.364 µM
LDH release ([1]; Hypoxia/Hypoglycemia, mean ± SEM (6), p < 0.001 vs Hypoxia/Hypoglycemia alone (143.81 ± 9.72), Normoxia 46.13 ± 6.08): 57.27 ± 8.11 Unit/mL
Resistance of neurons to oxygen/glucose deprivation ([1]; LDH release after 24 hours): enabled the neurons to resist the oxygen/glucose deprivation for longer
IC50 (Calmodulin-calcineurin): > 500 µM
IC50 (Thermolysin): > 500 µM
IC50 (Papain): 5.6 µM
